Where a name gives a salt, the structure may show the parent alone.
How the values were obtained:
Assay type in all cases: in vivo
[1] = tested on: Avena fatua; assay: Post-emergence tests/outdoors (Example D, Canada and USA); conditions: outdoors, 28–30 g of a.i./ha + SAS, 70 WP or 70 WG, 263 tests
Procedure: (§1) Post-Emergence Tests/Outdoors The sodium salt of the compound of the formula (I) was tested under outdoor conditions in the main cultivation areas of summer wheat in Canada and the USA against economically important weeds. The small-plot experiments were carried out on cultivated land under agricultural use, with cultivation and climate conditions which can be considered to be representative for the period of the trial. Areas with particularly extensive weed growth were chosen by way of preference. The active compound was applied across the area by the spray method, with an average droplet size. To produce a useful preparation of active compound, the active compound was formulated as 70 WP or 70 WG (70% w/w water-dispersible powder or granules) and applied with customary amounts of water. Wetting of the plants was improved by addition of a surface-active substance (SAS) in the concentration recommended by the manufacturer. To assess the crop compatibility, from 1 to 8 weeks after the treatment, plant growth inhibitions or […] of the leaf area were assessed in % damage in comparison to the development of the untreated control. At different intervals after the treatment, the herbicidal activity was assessed as % reduction in comparison to the untreated control, based on the weed development. The figures denote: • 0%=no damage of the crops or no herbicidal effect, • 100%=total destruction of the crops or the weeds.

[2] = tested on: Setaria viridis; assay: as above; conditions: outdoors, 28–30 g of a.i./ha + SAS, 70 WP or 70 WG, 102 tests
Procedure: as §1

[3] = tested on: Amaranthus retroflexus; assay: as above; conditions: outdoors, 28–30 g of a.i./ha + SAS, 70 WP or 70 WG, 60 tests
Procedure: as §1

[4] = tested on: Brassica spp.; assay: as above; conditions: outdoors, 28–30 g of a.i./ha + SAS, 70 WP or 70 WG, 27 tests
Procedure: as §1

[5] = tested on: Sinapis arvensis; assay: as above; conditions: outdoors, 28–30 g of a.i./ha + SAS, 70 WP or 70 WG, 48 tests
Procedure: as §1

[6] = tested on: Capsella bursa-pastoris; assay: as above; conditions: outdoors, 28–30 g of a.i./ha + SAS, 70 WP or 70 WG, 12 tests
Procedure: as §1

[7] = tested on: Thlaspi arvense; assay: as above; conditions: outdoors, 28–30 g of a.i./ha + SAS, 70 WP or 70 WG, 45 tests
Procedure: as §1

[8] = tested on: Polygonum; assay: Pre-emergence test/greenhouse; conditions: 30 g of ai./ha, after three weeks
Procedure: (§2) Pre-Emergence Test/Greenhouse Solvent: 5 parts by weight of acetone Emulsifier: 1 part by weight of alkylaryl polyglycol ether To produce a suitable preparation of active compound, 1 part by weight of active compound is mixed with the stated amount of solvent, the stated amount of emulsifier is added and the concentrate is diluted with water to the desired concentration. Seeds of the test plants are sown in normal soil. After about 24 hours, the soil is sprayed with the preparation of active compound such that the particular amount of active compound desired is applied per unit area. The concentration of the spray liquor is chosen so that the particular amount of active compound desired is applied in 500 ml of water per hectare. After three weeks, the degree of damage to the plants is assessed in % damage in comparison to the development of the untreated control. The figures denote: • 0%=no effect (like untreated control) • 100%=total destruction

[9] = tested on: Avena; assay: Pre-emergence test/greenhouse; conditions: 504 h, after three weeks, read-out: degree of damage, Avena
Procedure: as §2

[10] = tested on: Echinochloa; assay: Pre-emergence test/greenhouse; conditions: 30 g of ai./ha, after three weeks
Procedure: as §2

[11] = tested on: Setaria; assay: Pre-emergence test/greenhouse; conditions: after three weeks
Procedure: as §2

[12] = tested on: Wheat; assay: Pre-emergence test/greenhouse; conditions: in vivo
Procedure: as §2

[13] = tested on: Digitaria; assay: Pre-emergence test/greenhouse; conditions: 30 g of ai./ha, after three weeks
Procedure: as §2

[14] = tested on: Alopecurus; assay: Pre-emergence test/greenhouse; conditions: 504 h, after three weeks, read-out: degree of damage, Alopecurus
Procedure: as §2

[15] = tested on: Bromus; assay: Pre-emergence test/greenhouse; conditions: 30 g of ai./ha, after three weeks
Procedure: as §2

[16] = tested on: Matricaria; assay: Pre-emergence test/greenhouse; conditions: 30 g of ai./ha, after three weeks
Procedure: as §2

[17] = tested on: Avena fatua; assay: Post-emergence tests/outdoors (Example C, Canada); conditions: outdoors
Procedure: (§3) Post-Emergence Tests/Outdoors In addition to the comparative compounds (B) and (D), the sodium salt of the compound of the formula (I) was tested under outdoor conditions in the main cultivation areas of summer wheat in Canada against economically important weeds. The small-plot experiments were carried out on cultivated land under agricultural use. Areas with particularly extensive weed growth were chosen preferably. The active compounds were applied across the area by the spray method, with an average droplet size. To produce a useful preparation of active compound, the active compounds were formulated as 70 WP (70% w/w water-dispersible powder) and applied with customary amounts of water. Wetting of the plants was improved by addition of a surface-active substance (SAS) in the concentrations recommended by the respective manufacturer. To assess the crop compatibility, from 1 to 8 weeks after the treatment, plant growth inhibitions or […] of the leaf area were assessed in % damage in comparison to the development of the untreated control. At different intervals after the treatment, the herbicidal activity was assessed as % reduction in comparison to the untreated control, based on the weed development. The figures denote: • 0%=no damage of the crops or no herbicidal effect, • 100%=total destruction of the crops or the weeds.

[18] = tested on: Setaria viridis; assay: Post-emergence tests/outdoors (Example C, Canada); conditions: outdoors, 30 g of a.i./ha + SAS (Canplus 411), 70 WP, 5 tests
Procedure: as §3

[19] = tested on: Fallopia convolvulus; assay: Post-emergence tests/outdoors (Example C, Canada); conditions: outdoors, 30 g of a.i./ha + SAS (Canplus 411), 70 WP, 5 tests
Procedure: as §3

[20] = tested on: Sinapis arvensis; assay: Post-emergence tests/outdoors (Example C, Canada); conditions: outdoors, 30 g of a.i./ha + SAS (Canplus 411), 70 WP, 5 tests
Procedure: as §3

[21] = tested on: Thlaspi arvense; assay: Post-emergence tests/outdoors (Example C, Canada); conditions: outdoors, 30 g of a.i./ha + SAS (Canplus 411), 70 WP, 3 tests
Procedure: as §3

SMILES: COc1nn(C(=O)NS(=O)(=O)c2ccccc2OC(F)(F)F)c(=O)n1C [(I)-Na-salt, 2-(2-trifluoromethoxy-phenylsulphonylaminocarbonyl)-4-methyl-5-methoxy-2,4-dihydro-3H-1,2,4-triazol-3-one]
- herbicidal effect (%), Avena fatua [1]: 90%
- herbicidal effect (%), Setaria viridis [2]: 94%
- herbicidal effect (%), Amaranthus retroflexus [3]: 90%
- herbicidal effect (%), Brassica spp. [4]: 93%
- herbicidal effect (%), Sinapis arvensis [5]: 98%
- herbicidal effect (%), Capsella bursa-pastoris [6]: 90%
- herbicidal effect (%), Thlaspi arvense [7]: 97%
- degree of damage, Polygonum [8]: 90%
- pest or weed control at 30 g/ha ([9]; 30 g of ai./ha): 95%
- pest or weed control at 250 g/ha ([9]; 250 g ai./ha): 99%
- degree of damage, Echinochloa [10]: 80%
- degree of damage, Setaria ([11]; 30 g of ai./ha): 100%
- degree of damage, Setaria ([11]; 250 g ai./ha): 99%
- compatibility with crop plants (wheat), in words [12]: very good compatibility
- degree of damage, Wheat ([12]; wheat, 3 weeks): 0%
- degree of damage, Digitaria [13]: 100%
- pest or weed control at 30 g/ha ([14]; 30 g of ai./ha): 100%
- pest or weed control at 250 g/ha ([14]; 250 g ai./ha): 100%
- degree of damage, Bromus [15]: 100%
- degree of damage, Matricaria [16]: 100%
- herbicidal effect (%), Avena fatua ([17]; 30 g of a.i./ha + SAS (Canplus 411), 70 WP, 6 tests): 88%
- activity against Avena fatua compared with comparative compounds (B) and (D), in words ([17]; post-emergence): considerably stronger activity
- herbicidal effect (%), Setaria viridis [18]: 94%
- herbicidal effect (%), Fallopia convolvulus [19]: 73%
- herbicidal effect (%), Sinapis arvensis [20]: 94%
- herbicidal effect (%), Thlaspi arvense [21]: 93%

— patent US7651978B2, “Selective herbicides based on a substituted phenylsulphonylaminocarbonyl-triazolinone” (Arysta LifeScience North America, LLC, priority 1998, dated 2010)
